Laboratory results reported in US12559492B2, “BRAF degraders” (C4 Therapeutics, Inc., priority 2020, dated 2026).
Values belong to the compound of their own block, whether it stands above or below them.

Molecular target: BRAF^V600E protein (Homo sapiens, UniProt P15056, V600E)
Assay: HiBiT cellular BRAF V600E degradation assay
Assay type: cell-based
Conditions: 24 h incubation; for DC50: A375.10 cells (HiBiT tag knocked in at N-terminal of BRAF V600E), concentration at which 50% of total cellular BRAF V600E is degraded; for Emax / HiBit 24 h Emax: A375.10 cells, Emax = amount of residual protein remaining in the cell after compound treatment; for Emax: read-out: HiBit 24 h Emax

Chain of BRAF^V600E protein (P15056 whole entry V600E): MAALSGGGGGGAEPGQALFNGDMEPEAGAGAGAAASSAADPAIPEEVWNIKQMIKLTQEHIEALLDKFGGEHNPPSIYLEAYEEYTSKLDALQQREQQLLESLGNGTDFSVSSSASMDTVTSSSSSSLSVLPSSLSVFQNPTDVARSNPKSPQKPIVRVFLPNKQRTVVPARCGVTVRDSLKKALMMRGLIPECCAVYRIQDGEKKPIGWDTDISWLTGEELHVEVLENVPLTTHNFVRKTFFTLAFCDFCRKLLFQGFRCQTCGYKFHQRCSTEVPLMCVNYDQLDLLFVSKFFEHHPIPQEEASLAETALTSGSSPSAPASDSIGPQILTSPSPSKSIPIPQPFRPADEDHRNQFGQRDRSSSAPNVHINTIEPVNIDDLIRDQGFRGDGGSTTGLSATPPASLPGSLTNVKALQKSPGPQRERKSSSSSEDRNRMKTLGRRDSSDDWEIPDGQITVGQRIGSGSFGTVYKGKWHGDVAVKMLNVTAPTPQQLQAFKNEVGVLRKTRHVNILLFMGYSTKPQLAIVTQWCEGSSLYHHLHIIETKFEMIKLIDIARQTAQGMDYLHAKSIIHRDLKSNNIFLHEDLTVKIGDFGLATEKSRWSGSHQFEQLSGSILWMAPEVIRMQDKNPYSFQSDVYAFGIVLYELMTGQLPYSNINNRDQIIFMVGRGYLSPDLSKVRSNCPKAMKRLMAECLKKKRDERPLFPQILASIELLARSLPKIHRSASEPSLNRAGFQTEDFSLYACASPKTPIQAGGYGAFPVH

SMILES: CCN(C)S(=O)(=O)Nc1ccc(F)c(C(=O)c2c[nH]c3ncc(-c4ccc(CN5CCN(C6CCN(C(=O)CN7CCC(c8ccc(NC9CCC(=O)NC9=O)cc8)CC7)CC6)CC5)cc4)cc23)c1F (stereo not drawn) [Example A13, 5-[4-[[4-[1-[2-[4-[4-[(2,6-Dioxopiperidin-3-yl)amino]phenyl]piperidin-1-yl]acetyl]piperidin-4-yl]piperazin-1-yl]methyl]phenyl]-3-[3-[[ethyl(methyl)sulfamoyl]amino]-2,6-difluorobenzoyl]-1H-pyrrolo[2,3-b]pyridine]
- DC50: 91 nM
- Emax: 23%

SMILES: CC(C)S(=O)(=O)Nc1ccc(F)c(C(=O)c2c[nH]c3ncc(-c4cnc(N5CCN(C(=O)CN6CCC(c7ccc(NC8CCC(=O)NC8=O)cc7)CC6)CC5)nc4)cc23)c1F (stereo not drawn) [Example 5, N-[3-[5-[2-[4-[2-[4-[4-[(2,6-dioxo-3-piperidyl)amino]phenyl]-1-piperidyl]acetyl]piperazin-1-yl]pyrimidin-5-yl]-1H-pyrrolo[2,3-b]pyridine-3-carbonyl]-2,4-difluoro-phenyl]propane-2-sulfonamide]
- DC50: 3.94 nM
- Emax: 8.8%

SMILES: CCN(C)S(=O)(=O)Nc1ccc(F)c(C(=O)c2c[nH]c3ncc(-c4ccc(N5CCN(C(=O)CC6(O)CCN(c7cc(Cl)c(N8CCC(=O)NC8=O)cc7Cl)CC6)CC5)nc4)cc23)c1F [Example 218, 5-[6-[4-[2-[1-[2,5-dichloro-4-(2,4-dioxohexahydropyrimidin-1-yl)phenyl]-4-hydroxy-4-piperidyl]acetyl]piperazin-1-yl]-3-pyridyl]-3-[3-[[ethyl(methyl)sulfamoyl]amino]-2,6-difluoro-benzoyl]-1H-pyrrolo[2,3-b]pyridine]
- DC50: 4.1 nM
- Emax: 6.24%

SMILES: CCN(C)S(=O)(=O)Nc1ccc(F)c(C(=O)c2c[nH]c3ncc(-c4cnc(N5CCC(C(=O)NC6CCN(c7ccc(NC8CCC(=O)NC8=O)cc7F)CC6)CC5)nc4)cc23)c1F (stereo not drawn) [Example 128, N-[1-[4-[(2,6-dioxo-3-piperidyl)amino]-2-fluoro-phenyl]-4-piperidyl]-1-[5-[3-[3-[[ethyl(methyl)sulfamoyl]amino]-2,6-difluoro-benzoyl]-1H-pyrrolo[2,3-b]pyridin-5-yl]pyrimidin-2-yl]piperidine-4-carboxamide]
- DC50: 20.9 nM
- Emax: 14.6%

SMILES: CCN(C)S(=O)(=O)Nc1cccc(C(=O)c2c[nH]c3ncc(-c4cnc(N5CCN(C(=O)NC6CCN(c7ccc(NC8CCC(=O)NC8=O)cc7F)CC6)CC5)nc4)cc23)c1F (stereo not drawn) [Example 141, N-[1-[4-[(2,6-dioxo-3-piperidyl)amino]-2-fluoro-phenyl]-4-piperidyl]-4-[5-[3-[3-[[ethyl(methyl)sulfamoyl]amino]-2-fluoro-benzoyl]-1H-pyrrolo[2,3-b]pyridin-5-yl]pyrimidin-2-yl]piperazine-1-carboxamide]
- DC50: 2.84 nM
- Emax: 7.91%

SMILES: CCN(C)S(=O)(=O)Nc1cccc(C(=O)c2c[nH]c3ncc(-c4ccc(N5CCN(C(=O)CC6(O)CCN(c7ccc(NC8CCC(=O)NC8=O)cc7F)CC6)CC5)cc4)cc23)c1F (stereo not drawn) [Example 119, 5-[4-[4-[2-[1-[4-[(2,6-dioxo-3-piperidyl)amino]-2-fluoro-phenyl]-4-hydroxy-4-piperidyl]acetyl]piperazin-1-yl]phenyl]-3-[3-[[ethyl(methyl)sulfamoyl]amino]-2-fluoro-benzoyl]-1H-pyrrolo[2,3-b]pyridine]
- DC50: 8.71 nM
- Emax: 10.5%

SMILES: CCN(C)S(=O)(=O)Nc1ccc(F)c(C(=O)c2c[nH]c3ncc(-c4ccc(N5CCN(C(=O)CN6CCC(n7cc(NC8CCC(=O)NC8=O)cn7)CC6)CC5)cc4)cc23)c1F (stereo not drawn) [Example A80, 5-[4-[4-[2-[4-[4-[(2,6-Dioxopiperidin-3-yl)amino]pyrazol-1-yl]piperidin-1-yl]acetyl]piperazin-1-yl]phenyl]-3-[3-[[ethyl(methyl)sulfamoyl]amino]-2,6-difluorobenzoyl]-1H-pyrrolo[2,3-b]pyridine]
- DC50: 27.5 nM
- Emax: 21.6%

SMILES: CCN(C)S(=O)(=O)Nc1ccc(F)c(C(=O)c2c[nH]c3ncc(-c4cnc(N5CCN(C(=O)CN6CCN(c7ccc(NC8CCC(=O)NC8=O)cc7)CC6)CC5)nc4)cc23)c1F (stereo not drawn) [Example 19, 5-[2-[4-[2-[4-[4-[(2,6-dioxo-3-piperidyl)amino]phenyl]piperazin-1-yl]acetyl]piperazin-1-yl]pyrimidin-5-yl]-3-[3-[[ethyl(methyl)sulfamoyl]amino]-2,6-difluoro-benzoyl]-1H-pyrrolo[2,3-b]pyridine]
- DC50: 8.57 nM
- HiBit 24 h Emax: 11.26%

SMILES: CCN(C)S(=O)(=O)Nc1ccc(F)c(C(=O)c2c[nH]c3ncc(-c4cnc(N5CCN(C(=O)CN6CCC(c7ccc8c(c7)n(C)c(=O)n8C7CCC(=O)NC7=O)CC6)CC5)nc4)cc23)c1F (stereo not drawn) [Example 33, 1-(2,6-dioxo-3-piperidyl)-5-[1-[2-[4-[5-[3-[3-[[ethyl(methyl)sulfamoyl]amino]-2,6-difluoro-benzoyl]-1H-pyrrolo[2,3-b]pyridin-5-yl]pyrimidin-2-yl]piperazin-1-yl]-2-oxo-ethyl]-4-piperidyl]-3-methyl-2-oxo-benzimidazole]
- DC50: 2.51 nM
- Emax: 19.2%

Continued, values first:

- DC50: 97 nM
- Emax: 26%
SMILES: CCN(C)S(=O)(=O)Nc1ccc(F)c(C(=O)c2c[nH]c3ncc(-c4cnc(N5CCN(C(=O)C(C)(C)N6CCC(c7ccc(NC8CCC(=O)NC8=O)cc7)CC6)CC5)nc4)cc23)c1F (stereo not drawn) [Example A55, 5-[2-[4-[2-[4-[4-[(2,6-Dioxopiperidin-3-yl)amino]phenyl]piperidin-1-yl]-2-methylpropanoyl]piperazin-1-yl]pyrimidin-5-yl]-3-[3-[[ethyl(methyl)sulfamoyl]amino]-2,6-difluorobenzoyl]-1H-pyrrolo[2,3-b]pyridine]

- DC50: 1.33 nM
- Emax: 7.4%
SMILES: CCN(C)S(=O)(=O)Nc1ccc(F)c(C(=O)c2c[nH]c3ncc(-c4cnc(N5CCN(C(=O)CC6(O)CCN(c7cc(F)c(N8CCC(=O)NC8=O)cc7Cl)CC6)CC5)nc4)cc23)c1F [Example 216, 5-[2-[4-[2-[1-[2-chloro-4-(2,4-dioxohexahydropyrimidin-1-yl)-5-fluoro-phenyl]-4-hydroxy-4-piperidyl]acetyl]piperazin-1-yl]pyrimidin-5-yl]-3-[3-[[ethyl(methyl)sulfamoyl]amino]-2,6-difluoro-benzoyl]-1H-pyrrolo[2,3-b]pyridine]

- DC50: 3.06 nM
- Emax: 8.1%
SMILES: CCN(C)S(=O)(=O)Nc1ccc(F)c(C(=O)c2c[nH]c3ncc(-c4cnc(N5CCN(C(=O)CN6CCC(c7ccc(NC8CCC(=O)NC8=O)cc7)CC6)CC5)nc4)c(F)c23)c1F (stereo not drawn) [Example 66, 5-[2-[4-[2-[4-[4-[(2,6-dioxo-3-piperidyl)amino]phenyl]-1-piperidyl]acetyl]piperazin-1-yl]pyrimidin-5-yl]-3-[3-[[ethyl(methyl)sulfamoyl]amino]-2,6-difluoro-benzoyl]-4-fluoro-1H-pyrrolo[2,3-b]pyridine]

- DC50: 4.04 nM
- Emax: 11.5%
SMILES: CCN(C)S(=O)(=O)Nc1ccc(F)c(C(=O)c2c[nH]c3ncc(-c4ccc(N5CCN(CCN6CCC(c7ccc(NC8CCC(=O)NC8=O)cc7)CC6)CC5)nc4)cc23)c1F (stereo not drawn) [Example 143, 5-[6-[4-[2-[4-[4-[(2,6-dioxo-3-piperidyl)amino]phenyl]-1-piperidyl]ethyl]piperazin-1-yl]-3-pyridyl]-3-[3-[[ethyl(methyl)sulfamoyl]amino]-2,6-difluoro-benzoyl]-1H-pyrrolo[2,3-b]pyridine]

- DC50: 79 nM
- Emax: 25%
SMILES: CCN(C)S(=O)(=O)Nc1ccc(F)c(C(=O)c2c[nH]c3ncc(-c4cnc(N5CCC(NC(=O)N6CCC(c7ccc(NC8CCC(=O)NC8=O)cc7)CC6)CC5)nc4)cc23)c1F (stereo not drawn) [Example A34, 4-[4-[(2,6-Dioxopiperidin-3-yl)amino]phenyl]-N-[1-[5-[3-[3-[[ethyl(methyl)sulfamoyl]amino]-2,6-difluorobenzoyl]-1H-pyrrolo[2,3-b]pyridin-5-yl]pyrimidin-2-yl]piperidin-4-yl]piperidine-1-carboxamide;formic acid]

- DC50: 8.93 nM
- Emax: 15.4%
SMILES: CCN(C)S(=O)(=O)Nc1ccc(F)c(C(=O)c2c[nH]c3ncc(-c4cnc(N5CCN(C(=O)[C@H]6C[C@@H](N7CCC(c8ccc(NC9CCC(=O)NC9=O)cc8)CC7)C6)CC5)nc4)cc23)c1F (stereo partly drawn) [Example A78, 5-[2-[4-[3-[4-[4-[(2,6-Dioxopiperidin-3-yl)amino]phenyl]piperidin-1-yl]cyclobutanecarbonyl]piperazin-1-yl]pyrimidin-5-yl]-3-[3-[[ethyl(methyl)sulfamoyl]amino]-2,6-difluorobenzoyl]-1H-pyrrolo[2,3-b]pyridine]

- DC50: 32.5 nM
- HiBit 24 h Emax: 9.07%
SMILES: CCN(C)S(=O)(=O)Nc1ccc(F)c(C(=O)c2c[nH]c3ncc(-c4ccc(N5CCN(C(=O)CN6CCC(c7ccc(O[C@@H]8CCC(=O)NC8=O)cc7)CC6)CC5)nc4)cc23)c1F [Example 74, 5-[6-[4-[2-[4-[4-[[(3R)-2,6-dioxo-3-piperidyl]oxy]phenyl]-1-piperidyl]acetyl]piperazin-1-yl]-3-pyridyl]-3-[3-[[ethyl(methyl)sulfamoyl]amino]-2,6-difluoro-benzoyl]-1H-pyrrolo[2,3-b]pyridine]

- DC50: 34 nM
- Emax: 13%
SMILES: O=C1CCC(Nc2ccc(C3CCN(CC(=O)N4CCN(c5ccc(-c6cnc7[nH]cc(C(=O)c8c(F)ccc(NS(=O)(=O)C9CCCCC9)c8F)c7c6)cn5)CC4)CC3)cc2)C(=O)N1 (stereo not drawn) [Example A33, N-[3-[5-[6-[4-[2-[4-[4-[(2,6-Dioxopiperidin-3-yl)amino]phenyl]piperidin-1-yl]acetyl]piperazin-1-yl]pyridin-3-yl]-1H-pyrrolo[2,3-b]pyridine-3-carbonyl]-2,4-difluorophenyl]cyclohexanesulfonamide]

- DC50: 17.2 nM
- Emax: 9.14%
SMILES: CCN(C)S(=O)(=O)Nc1ccc(F)c(C(=O)c2c[nH]c3ncc(-c4cnc(N5CCN(C(=O)CN6CCC(N7CCN(C8CCC(=O)NC8=O)C(=O)C7)CC6)CC5)nc4)cc23)c1F (stereo not drawn) [Example 37, 5-[2-[4-[2-[4-[4-(2,6-dioxo-3-piperidyl)-3-oxo-piperazin-1-yl]-1-piperidyl]acetyl]piperazin-1-yl]pyrimidin-5-yl]-3-[3-[[ethyl(methyl)sulfamoyl]amino]-2,6-difluoro-benzoyl]-1H-pyrrolo[2,3-b]pyridine]
